# Experimental data: paper PMC8219695 (Nature Communications, 2021)
# Values joined by “and” are separate entries in the source; they are usually repeats but may differ in a detail not shown here. Identical values can stand only once.
# What was measured:
# hMOR = molecular target: T1, hMOR (Homo sapiens, UniProt P35372); assay: CAMYEL BRET cAMP agonist assay at hMOR; format: cell-based; settings: for cAMP %: hMOR, single replicates, source data Fig 6c, listed as C11-Cl-7OH (23)
# T1 construct: expressed in transfected cells; plasmid a gift from Dr. Nevin Lambert
# T1 sequence (P35372 whole entry): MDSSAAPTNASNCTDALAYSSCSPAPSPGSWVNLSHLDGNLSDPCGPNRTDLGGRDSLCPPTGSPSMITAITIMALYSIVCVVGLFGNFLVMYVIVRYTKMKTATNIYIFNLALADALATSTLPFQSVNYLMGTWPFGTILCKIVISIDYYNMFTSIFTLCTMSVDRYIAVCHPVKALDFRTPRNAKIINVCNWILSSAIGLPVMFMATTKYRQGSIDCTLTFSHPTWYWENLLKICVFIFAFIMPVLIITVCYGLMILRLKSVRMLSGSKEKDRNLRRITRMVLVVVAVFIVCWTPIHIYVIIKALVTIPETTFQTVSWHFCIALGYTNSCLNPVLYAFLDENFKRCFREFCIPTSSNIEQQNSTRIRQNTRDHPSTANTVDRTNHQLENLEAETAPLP
# mDOR = molecular target: T2, mDOR (Mus musculus, UniProt P32300); assay: CAMYEL BRET cAMP agonist assay at mDOR; format: cell-based; settings: for Agonist activity of 7OH analogs at mDOR: single replicate values, Supplementary Figure 7B
# T2 construct: expressed in transfected cells
# T2 sequence (P32300 whole entry): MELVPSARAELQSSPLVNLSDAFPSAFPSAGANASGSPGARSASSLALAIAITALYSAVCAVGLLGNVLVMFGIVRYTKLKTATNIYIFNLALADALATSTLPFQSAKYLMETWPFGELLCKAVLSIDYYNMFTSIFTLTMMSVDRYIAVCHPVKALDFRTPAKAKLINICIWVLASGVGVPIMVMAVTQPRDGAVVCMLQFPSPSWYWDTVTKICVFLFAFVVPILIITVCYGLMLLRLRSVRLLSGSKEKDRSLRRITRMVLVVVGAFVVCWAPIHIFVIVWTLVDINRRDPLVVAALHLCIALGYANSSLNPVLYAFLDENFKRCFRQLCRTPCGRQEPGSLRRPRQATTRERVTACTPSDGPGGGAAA
# rKOR = molecular target: T3, rKOR (Rattus norvegicus, UniProt P34975); assay: CAMYEL BRET cAMP agonist assay at rKOR; format: cell-based; settings: individual replicates, Supplementary Figure 8B source data
# T3 construct: expressed in transfected cells
# T3 sequence (P34975 whole entry): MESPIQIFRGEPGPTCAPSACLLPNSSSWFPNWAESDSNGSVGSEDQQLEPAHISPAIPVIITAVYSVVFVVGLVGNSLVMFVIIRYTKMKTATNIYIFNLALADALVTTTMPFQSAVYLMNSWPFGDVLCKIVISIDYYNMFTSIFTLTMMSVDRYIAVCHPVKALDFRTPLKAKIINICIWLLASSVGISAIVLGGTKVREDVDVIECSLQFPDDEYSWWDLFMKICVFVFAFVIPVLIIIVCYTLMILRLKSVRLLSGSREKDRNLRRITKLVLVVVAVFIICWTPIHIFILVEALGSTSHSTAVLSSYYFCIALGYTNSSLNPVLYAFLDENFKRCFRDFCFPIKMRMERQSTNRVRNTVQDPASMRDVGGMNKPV
# CD1 mice = assay: Tail-flick antinociception in CD1 mice; format: in vivo, mouse; settings: 5 or 25 mg/kg s.c., CD1 mice, time course
# hDOR = hDOR (Homo sapiens, UniProt P41143); assay: CAMYEL BRET cAMP agonist assay at hDOR; format: cell-based; settings: single replicate values, Supplementary Figure 7A
# Chain of hDOR (P41143 whole entry): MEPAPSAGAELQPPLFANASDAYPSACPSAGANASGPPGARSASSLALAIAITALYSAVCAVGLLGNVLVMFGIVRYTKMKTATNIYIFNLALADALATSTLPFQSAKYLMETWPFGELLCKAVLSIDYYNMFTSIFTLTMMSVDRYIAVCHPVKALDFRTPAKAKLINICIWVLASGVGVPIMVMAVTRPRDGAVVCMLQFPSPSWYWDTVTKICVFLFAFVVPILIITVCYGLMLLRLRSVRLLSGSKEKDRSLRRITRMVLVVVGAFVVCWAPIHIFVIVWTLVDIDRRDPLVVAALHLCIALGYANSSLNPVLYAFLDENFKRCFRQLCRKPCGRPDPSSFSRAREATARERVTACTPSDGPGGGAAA
structure (smiles),measurement,setting,value
"CC[C@@H]1CN2CC[C@@]3(O)C(=Nc4cc(Cl)cc(OC)c43)[C@@H]2C[C@@H]1/C(=C\OC)C(=O)OC [11-Cl-7OH (23), 11-Cl-7OH]",EC50,hMOR,717 nM
same,Emax,hMOR,23%
same,cAMP %,hMOR; Log[drug] (M) -5,24.2611% and 22.8658% and 18.7916% and 30.0534% and 27.3903% and 24.7857% and 23.2679% and 13.839% and 17.3142%
same,cAMP %,hMOR; Log[drug] (M) -6,9.687% and 7.44% and 12.4984% and 21.3658% and 16.0104% and 20.3589% and 22.2511% and 5.161% and 10.3498%
same,cAMP %,hMOR; Log[drug] (M) -7,10.7608% and 2.692% and 16.2864% and 16.6401% and 9.757% and 17.1458% and 11.7292% and -1.4445% and 4.302%
same,cAMP %,hMOR; Log[drug] (M) -8,-0.5618% and -5.878% and 6.44% and 1.224% and 16.3686% and 4.4% and 2.431% and 4.114% and 14.2353%
same,cAMP %,hMOR; Log[drug] (M) -9,10.2691% and 5.0211% and 7.383% and 19.7872% and -6.277% and -5.837% and 8.258% and 7.437% and 22.4848%
same,cAMP %,hMOR; Log[drug] (M) -10,8.636% and -0.2251% and 3.667% and 1.365% and 3.739% and -5.1037% and -3.2997% and -3.028% and 15.0493%
same,cAMP %,hMOR; Log[drug] (M) -11,5.568% and -0.09872% and -1.208% and 11.7024% and 0.1582% and 4.468% and 2.344% and 1.001% and -3.345%
same,cAMP %,"hMOR; Log[drug] (M) -13, cAMP inhibition as % of DAMGO",15.4388% and 3.989% and -0.7984% and 3.857% and -0.6743% and 5.111% and -4.4777% and 4.879% and 4.064%
same,Agonist activity of 7OH analogs at mDOR,mDOR; Log[drug] (M) -5,26.1167 and 29.2367 and 36.3699 and 32.2405 and 24.7678 and 31.8502 and 20.8066 and 14.4196
same,Agonist activity of 7OH analogs at mDOR,mDOR; Log[drug] (M) -6,24.5815 and 25.9676 and 37.4358 and 15.5242 and 17.7522 and 18.5933 and 15.1392 and 2.291 and 7.306
same,Agonist activity of 7OH analogs at mDOR,mDOR; Log[drug] (M) -7,31.8669 and 29.4684 and 27.3279 and 35.1303 and 15.7738 and 14.2288 and -2.321 and 1.192 and 1.129
same,Agonist activity of 7OH analogs at mDOR,mDOR; Log[drug] (M) -8,24.8631 and 32.1589 and 37.1926 and 12.9562 and 15.2093 and 7.166 and 10.5442 and -9.446 and 11.0136
same,Agonist activity of 7OH analogs at mDOR,mDOR; Log[drug] (M) -9,33.463 and 29.5442 and 24.9953 and 13.5309 and 13.5578 and 8.893 and 29.4233
same,Agonist activity of 7OH analogs at mDOR,mDOR; Log[drug] (M) -10,24.7821 and 18.2952 and 15.7891 and -5.277 and 4.222 and 6.7221 and 13.4439 and 1.454 and 8.443
same,Agonist activity of 7OH analogs at mDOR,mDOR; Log[drug] (M) -11,28.0105 and 19.9828 and 19.4476 and 11.3847 and -1.66 and -5.157 and 5.226 and 0.03212 and 8.89
same,Agonist activity of 7OH analogs at mDOR,mDOR; Log[drug] (M) -13,-1.931 and 4.676 and 0.1543 and -4.31 and 4.156 and 0.5113 and 7.987 and 3.883
same,Emax,"mDOR; mDOR cAMP BRET, positive control DPDPE",very low efficacy
same,Agonist activity of 7OH analogs at rKOR,rKOR; Log [drug](M) -5,7.778 and 10.9917 and 16.9019 and -6.188 and -1.8256 and 8.442 and 6.4374 and 16.0399 and 7.566
same,Agonist activity of 7OH analogs at rKOR,rKOR; Log [drug](M) -6,8.066 and 4.412 and -3.244 and 6.747 and -4.426 and -2.321 and 10.6533 and 7.813 and 3.403
same,Agonist activity of 7OH analogs at rKOR,rKOR; Log [drug](M) -7,11.5045 and -0.8261 and -10.6783 and 7.768 and -4.174 and 5.42 and 2.7074 and 2.952 and 8.478
same,Agonist activity of 7OH analogs at rKOR,rKOR; Log [drug](M) -8,0.508 and -0.7332 and 4.656 and 8.713 and 2.1745 and 4.589 and 10.047 and 0.1108 and 9.912
same,Agonist activity of 7OH analogs at rKOR,rKOR; Log [drug](M) -9,6.738 and 3.9698 and 11.9053 and 20.8557 and 20.3344 and 22.4492 and 3.132 and -0.673 and 0.03935
same,Agonist activity of 7OH analogs at rKOR,rKOR; Log [drug](M) -10,7.8399 and 7.154 and 27.1145 and 5.225 and 8.778 and 7.65 and 0.6993 and -2.781 and 2.082
same,Agonist activity of 7OH analogs at rKOR,rKOR; Log [drug](M) -11,20.1355 and 7.2112 and 5.419 and 15.9158 and 14.9773 and 3.289 and 5.031 and 2.5469 and 3.562
same,Agonist activity of 7OH analogs at rKOR,rKOR; Log [drug](M) -13,2.6438 and 19.3085 and 15.1998 and 15.6888 and 12.292 and 1.7 and 4.489 and 13.3107 and 4.029
same,analgesic effect in tail-flick,CD1 mice,no analgesic effect
same,Agonist activity of 7OH analogs at hDOR,hDOR; Log[drug] (M) -5,17.1397 and 15.6735 and 17.1747 and 8.18 and -3.544 and 1.305 and 21.6642 and 15.0671 and 20.6929
same,Agonist activity of 7OH analogs at hDOR,hDOR; Log[drug] (M) -6,30.6083 and 25.9231 and 32.3513 and 1.677 and 12.7082 and 9.625 and 17.2797 and 6.922 and 2.636
same,Agonist activity of 7OH analogs at hDOR,hDOR; Log[drug] (M) -7,15.9329 and 22.4846 and 15.3548 and 1.086 and 2.267 and 6.255 and -1.22 and -1.151 and 2.37
same,Agonist activity of 7OH analogs at hDOR,hDOR; Log[drug] (M) -8,13.6904 and 16.1168 and 10.9974 and 2.935 and -7.546 and 4.612 and 5.7671 and 0.4715 and 17.0267
same,Agonist activity of 7OH analogs at hDOR,hDOR; Log[drug] (M) -9,23.852 and 14.4843 and 22.6626 and 18.4578 and 15.1232 and 4.553 and 18.1791 and 11.0147 and 18.7534
